Key:
E. coli LysRS = biological target: T1, E. coli LysRS (Escherichia coli, UniProt P0A8N3); assay: amino acid activation; format: biochemical; conditions: analog 25 mM; ATP
T1 sequence (P0A8N3 2-505): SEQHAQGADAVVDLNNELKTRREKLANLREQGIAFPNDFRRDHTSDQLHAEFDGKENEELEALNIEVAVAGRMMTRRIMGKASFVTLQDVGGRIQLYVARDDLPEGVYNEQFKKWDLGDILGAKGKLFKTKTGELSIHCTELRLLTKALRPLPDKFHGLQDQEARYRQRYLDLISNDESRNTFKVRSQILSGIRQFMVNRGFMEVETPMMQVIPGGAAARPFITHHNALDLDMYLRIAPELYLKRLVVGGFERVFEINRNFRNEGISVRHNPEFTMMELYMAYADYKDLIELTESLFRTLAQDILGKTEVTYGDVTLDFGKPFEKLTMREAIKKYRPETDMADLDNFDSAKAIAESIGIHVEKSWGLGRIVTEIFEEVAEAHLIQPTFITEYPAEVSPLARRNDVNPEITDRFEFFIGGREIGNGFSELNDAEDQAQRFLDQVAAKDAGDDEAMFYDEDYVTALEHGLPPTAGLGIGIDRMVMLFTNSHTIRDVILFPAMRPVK

GenX (PoxA, YjeA) = biological target: T2, GenX (PoxA, YjeA) (Escherichia coli, UniProt P0A8N7); assay: inhibition of lysine activation, ATP-[…]PPi exchange; format: biochemical
T2 sequence (P0A8N7 1-325): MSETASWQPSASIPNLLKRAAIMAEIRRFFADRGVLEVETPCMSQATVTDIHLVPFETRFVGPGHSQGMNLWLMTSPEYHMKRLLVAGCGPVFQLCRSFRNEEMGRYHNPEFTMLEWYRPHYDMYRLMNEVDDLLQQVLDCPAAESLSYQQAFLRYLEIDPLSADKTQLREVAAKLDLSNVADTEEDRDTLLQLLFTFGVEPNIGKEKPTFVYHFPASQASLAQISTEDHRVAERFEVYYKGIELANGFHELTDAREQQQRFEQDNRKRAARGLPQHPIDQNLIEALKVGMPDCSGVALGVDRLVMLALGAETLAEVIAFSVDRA

Structure (SMILES) | amino acid activation (E. coli LysRS) | Ki (GenX (PoxA, YjeA)) [µM]
NCCSC[C@H](N)C(=O)O [compound 1, S-(2-aminoethyl)-L-cysteine] | E. coli LysRS readily activates S-(2-aminoethyl)-L-cysteine (AEC), ornithine | –
NCCCC[C@H](N)C(N)=O [compound 3, lysinamide] | – | 280
NCCCC[C@H](N)C(=O)NO [compound 2, L-lysine hydroxamate] | – | 150

Source: publication PMC2900529 (FEBS letters, 2010)
